# pIC50: −log10 of the molar value. Where a SMILES comes first, the peptide text is derived from it. Bridges are numbered along the chain shown (N, C = ends). [ ]: non-standard residue; d: D form. The star is where a group is joined. Phe(4-COOH) = N[C@@H](Cc1ccc(C(=O)O)cc1)C(=O)O; Bip = N[C@@H](Cc1ccc(-c2ccccc2)cc1)C(=O)O; Phe(3-Me) = Cc1cccc(C[C@H](N)C(=O)O)c1; 3Pal = N[C@@H](Cc1cccnc1)C(=O)O; 4Pal = N[C@@H](Cc1ccncc1)C(=O)O; Cha = N[C@@H](CC1CCCCC1)C(=O)O; Carboxymethyl = O=C(O)C*; NMeA = CN[C@@H](C)C(=O)O; Orn = NCCC[C@H](N)C(=O)O; Aun = NCCCCCCCCCCC(=O)O; Dab = NCC[C@H](N)C(=O)O
# Biological target: T1, PD-1/PD-L1 interaction (PE-labeled human PD-L1-Ig binding to Jurkat cell line over-expressing human PD-1) (Homo sapiens, UniProt Q15116)
# T1 construct: expressed in transfected cells; host or cells: Jurkat
# T1 sequence (Q15116 25-288): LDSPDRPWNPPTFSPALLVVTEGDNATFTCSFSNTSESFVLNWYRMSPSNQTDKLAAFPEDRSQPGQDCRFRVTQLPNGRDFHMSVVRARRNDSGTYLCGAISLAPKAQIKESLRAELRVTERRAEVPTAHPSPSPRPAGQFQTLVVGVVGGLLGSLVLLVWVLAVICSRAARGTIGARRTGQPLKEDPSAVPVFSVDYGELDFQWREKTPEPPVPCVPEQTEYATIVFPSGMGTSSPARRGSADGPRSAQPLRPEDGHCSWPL
# Assay: Jurkat-PD-1 Cell Binding High-Content Screening Assay (CBA)
# Conditions: Jurkat-hPD-1 cells, PE-labeled PD-L1-Ig 20 nM final; read-out: Jurkat HPD1 PDL1 IC50
# Procedure, shortened: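 Jurkat-hPD-1 cells (8×10^3/well) in DMEM with 10% fetal calf serum were preincubated with compound for 2 h at 37 °C. PE-labeled PD-L1-Ig was then added at 20 nM final for 1 h. Cells were fixed in paraformaldehyde with Hoechst 33342, washed and imaged by high-content imaging.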
row,Structure (SMILES),pIC50
1,Cc1cccc(C[C@@H]2NC(=O)[C@H](CC(=O)O)NC(=O)[C@H](Cc3ccc(O)cc3)NC(=O)[C@H](CC(N)=O)NC(=O)CSC[C@@H](C(=O)N[C@@H](CCN)C(=O)NCCCCCCCCCCC(=O)O)NC(=O)[C@H]([C@@H](C)O)NC(=O)[C@H](C(C)C)NC(=O)[C@H](CC3CCCCC3)NC(=O)[C@H](CCN)NC(=O)[C@@H](CC(C)C)NC(=O)[C@H](C)N(C)C(=O)[C@H](Cc3ccc(O)cc3)NC(=O)[C@H](Cc3ccc(-c4ccccc4)cc3)NC(=O)[C@H](C(C)C)NC2=O)c1 [Example 1321] ({CH2CO}-NYD[Phe(3-Me)]V[Bip]Y[NMeA][dL][Dab][Cha]VTC[Dab][Aun]-OH; thioether N-14),6.85
2,Cc1cccc(C[C@@H]2NC(=O)[C@H](CC(=O)O)NC(=O)[C@H](Cc3ccc(OCC(=O)O)cc3)NC(=O)[C@H](CC(N)=O)NC(=O)CSC[C@@H](C(=O)N[C@@H](CCN)C(=O)NCCCCCCCCCCC(=O)O)NC(=O)[C@H]([C@@H](C)O)NC(=O)[C@H](C(C)C)NC(=O)[C@H](CC3CCCCC3)NC(=O)[C@H](CCN)NC(=O)[C@@H](CC(C)C)NC(=O)[C@H](C)N(C)C(=O)[C@H](Cc3ccc(O)cc3)NC(=O)[C@H](Cc3ccc(-c4ccccc4)cc3)NC(=O)[C@H](C(C)C)NC2=O)c1 [Example 1322] ({CH2CO}-NY(Carboxymethyl)D[Phe(3-Me)]V[Bip]Y[NMeA][dL][Dab][Cha]VTC[Dab][Aun]-OH; thioether N-14),7.71
3,Cc1cccc(C[C@@H]2NC(=O)[C@H](CC(=O)O)NC(=O)[C@H](Cc3cccnc3)NC(=O)[C@H](CC(N)=O)NC(=O)CSC[C@@H](C(=O)N[C@@H](CCN)C(=O)NCCCCCCCCCCC(=O)O)NC(=O)[C@H]([C@@H](C)O)NC(=O)[C@H](C(C)C)NC(=O)[C@H](CC3CCCCC3)NC(=O)[C@H](CCN)NC(=O)[C@@H](CC(C)C)NC(=O)[C@H](C)N(C)C(=O)[C@H](Cc3ccc(O)cc3)NC(=O)[C@H](Cc3ccc(-c4ccccc4)cc3)NC(=O)[C@H](C(C)C)NC2=O)c1 [Example 1323] ({CH2CO}-N[3Pal]D[Phe(3-Me)]V[Bip]Y[NMeA][dL][Dab][Cha]VTC[Dab][Aun]-OH; thioether N-14),7.00
4,CC(C)C[C@H]1NC(=O)[C@H](C)N(C)C(=O)[C@H](Cc2ccc(O)cc2)NC(=O)[C@H](Cc2ccc(-c3ccccc3)cc2)NC(=O)[C@H](C(C)C)NC(=O)[C@H](Cc2c[nH]c3ccccc23)NC(=O)[C@H](CC(=O)O)NC(=O)[C@H](Cc2ccc(OCC(=O)O)cc2)NC(=O)[C@H](Cc2ccncc2)NC(=O)CSC[C@@H](C(=O)N[C@@H](CCN)C(=O)NCCCCCCCCCCC(=O)O)NC(=O)[C@H]([C@@H](C)O)NC(=O)[C@H](C(C)C)NC(=O)[C@H](CC2CCCCC2)NC(=O)[C@H](CCN)NC1=O [Example 1324] ({CH2CO}-[4Pal]Y(Carboxymethyl)DWV[Bip]Y[NMeA][dL][Dab][Cha]VTC[Dab][Aun]-OH; thioether N-14),7.47
5,CC(C)C[C@@H]1NC(=O)[C@H](Cc2c[nH]c3ccccc23)NC(=O)[C@H](CC(=O)O)NC(=O)[C@H](Cc2ccncc2)NC(=O)[C@H](Cc2ccc(OCC(=O)O)cc2)NC(=O)CSC[C@@H](C(=O)N[C@@H](CCN)C(=O)NCCCCCCCCCCC(=O)O)NC(=O)[C@H]([C@@H](C)O)NC(=O)[C@H](C(C)C)NC(=O)[C@H](CC2CCCCC2)NC(=O)[C@H](CCN)NC(=O)[C@@H](CC(C)C)NC(=O)[C@H](C)N(C)C(=O)[C@H](Cc2ccc(O)cc2)NC(=O)[C@H](Cc2ccc(-c3ccccc3)cc2)NC1=O [Example 1325] ({CH2CO}-Y(Carboxymethyl)[4Pal]DWL[Bip]Y[NMeA][dL][Dab][Cha]VTC[Dab][Aun]-OH; thioether N-14),7.55
6,CC(C)C[C@@H]1NC(=O)[C@H](Cc2c[nH]c3ccccc23)NC(=O)[C@H](CC(=O)O)NC(=O)[C@H](Cc2ccc(C(=O)O)cc2)NC(=O)[C@H](Cc2ccc(OCC(=O)O)cc2)NC(=O)CSC[C@@H](C(=O)N[C@@H](CCN)C(=O)NCCCCCCCCCCC(=O)O)NC(=O)[C@H]([C@@H](C)O)NC(=O)[C@H](C(C)C)NC(=O)[C@H](CC2CCCCC2)NC(=O)[C@H](CCN)NC(=O)[C@@H](CC(C)C)NC(=O)[C@H](C)N(C)C(=O)[C@H](C(C)C)NC(=O)[C@H](Cc2ccc(-c3ccccc3)cc2)NC1=O [Example 1326] ({CH2CO}-Y(Carboxymethyl)[Phe(4-COOH)]DWL[Bip]V[NMeA][dL][Dab][Cha]VTC[Dab][Aun]-OH; thioether N-14),7.70

# Second part, the compound after the results:
row,pIC50,Structure (SMILES)
1,7.62,CC(C)C[C@@H]1NC(=O)[C@H](Cc2c[nH]c3ccccc23)NC(=O)[C@H](CC(=O)O)NC(=O)[C@H](Cc2ccc(C(=O)O)cc2)NC(=O)[C@H](Cc2ccc(OCC(=O)O)cc2)NC(=O)CSC[C@@H](C(=O)N[C@@H](CCCN)C(=O)NCCCCCCCCCCC(=O)O)NC(=O)[C@H](CCC(=O)O)NC(=O)[C@H](C(C)C)NC(=O)[C@H](CC2CCCCC2)NC(=O)[C@H](CCN)NC(=O)[C@@H](CC(C)C)NC(=O)[C@H](C)N(C)C(=O)[C@H](C(C)C)NC(=O)[C@H](Cc2ccc(-c3ccccc3)cc2)NC1=O [Example 1328] ({CH2CO}-Y(Carboxymethyl)[Phe(4-COOH)]DWL[Bip]V[NMeA][dL][Dab][Cha]VEC[Orn][Aun]-OH; thioether N-14)
2,7.82,CC(C)C[C@@H]1NC(=O)[C@H](Cc2c[nH]c3ccccc23)NC(=O)[C@H](CC(=O)O)NC(=O)[C@H](Cc2ccncc2)NC(=O)[C@H](Cc2ccc(OCC(=O)O)cc2)NC(=O)CSC[C@@H](C(=O)N[C@@H](CCN)C(=O)NCCCCCCCCCCC(=O)O)NC(=O)[C@H]([C@@H](C)O)NC(=O)[C@H](C(C)C)NC(=O)[C@H](CC2CCCCC2)NC(=O)[C@H](CCN)NC(=O)[C@@H](CC(C)C)NC(=O)[C@H](C)N(C)C(=O)[C@H](C(C)C)NC(=O)[C@H](Cc2ccc(-c3ccccc3)cc2)NC1=O [Example 1329] ({CH2CO}-Y(Carboxymethyl)[4Pal]DWL[Bip]V[NMeA][dL][Dab][Cha]VTC[Dab][Aun]-OH; thioether N-14)
3,7.85,CC(C)C[C@@H]1NC(=O)[C@H](Cc2c[nH]c3ccccc23)NC(=O)[C@H](CC(=O)O)NC(=O)[C@H](Cc2ccncc2)NC(=O)[C@H](Cc2ccc(OCC(=O)O)cc2)NC(=O)CSC[C@@H](C(=O)N[C@@H](CCN)C(=O)NCCCCCCCCCCC(=O)O)NC(=O)[C@H](CCC(=O)O)NC(=O)[C@H](C(C)C)NC(=O)[C@H](CC2CCCCC2)NC(=O)[C@H](CCN)NC(=O)[C@@H](CC(C)C)NC(=O)[C@H](C)N(C)C(=O)[C@H](C(C)C)NC(=O)[C@H](Cc2ccc(-c3ccccc3)cc2)NC1=O [Example 1330] ({CH2CO}-Y(Carboxymethyl)[4Pal]DWL[Bip]V[NMeA][dL][Dab][Cha]VEC[Dab][Aun]-OH; thioether N-14)
4,7.91,CC(C)C[C@@H]1NC(=O)[C@H](Cc2c[nH]c3ccccc23)NC(=O)[C@H](CC(=O)O)NC(=O)[C@H](Cc2ccncc2)NC(=O)[C@H](Cc2ccc(OCC(=O)O)cc2)NC(=O)CSC[C@@H](C(=O)N[C@@H](CCCN)C(=O)NCCCCCCCCCCC(=O)O)NC(=O)[C@H]([C@@H](C)O)NC(=O)[C@H](C(C)C)NC(=O)[C@H](CC2CCCCC2)NC(=O)[C@H](CCN)NC(=O)[C@@H](CC(C)C)NC(=O)[C@H](C)N(C)C(=O)[C@H](C(C)C)NC(=O)[C@H](Cc2ccc(-c3ccccc3)cc2)NC1=O [Example 1331] ({CH2CO}-Y(Carboxymethyl)[4Pal]DWL[Bip]V[NMeA][dL][Dab][Cha]VTC[Orn][Aun]-OH; thioether N-14)
5,7.84,CC(C)C[C@@H]1NC(=O)[C@H](Cc2c[nH]c3ccccc23)NC(=O)[C@H](CC(=O)O)NC(=O)[C@H](Cc2ccncc2)NC(=O)[C@H](Cc2ccc(OCC(=O)O)cc2)NC(=O)CSC[C@@H](C(=O)N[C@@H](CCCN)C(=O)NCCCCCCCCCCC(=O)O)NC(=O)[C@H](CCC(=O)O)NC(=O)[C@H](C(C)C)NC(=O)[C@H](CC2CCCCC2)NC(=O)[C@H](CCN)NC(=O)[C@@H](CC(C)C)NC(=O)[C@H](C)N(C)C(=O)[C@H](C(C)C)NC(=O)[C@H](Cc2ccc(-c3ccccc3)cc2)NC1=O [Example 1332] ({CH2CO}-Y(Carboxymethyl)[4Pal]DWL[Bip]V[NMeA][dL][Dab][Cha]VEC[Orn][Aun]-OH; thioether N-14)
6,7.17,CC(C)C[C@@H]1NC(=O)[C@H](Cc2c[nH]c3ccccc23)NC(=O)[C@H](CC(=O)O)NC(=O)[C@H](Cc2ccc(OCC(=O)O)cc2)NC(=O)[C@H](Cc2ccccc2)NC(=O)CSC[C@@H](C(=O)N[C@@H](CCN)C(=O)NCCCCCCCCCCC(=O)O)NC(=O)[C@H]([C@@H](C)O)NC(=O)[C@H](C(C)C)NC(=O)[C@H](CC(C)C)NC(=O)[C@H](CC(N)=O)NC(=O)[C@@H](CC(C)C)NC(=O)[C@H](C)N(C)C(=O)[C@H](C(C)C)NC(=O)[C@H](Cc2ccc(-c3ccccc3)cc2)NC1=O [Example 1333] ({CH2CO}-FY(Carboxymethyl)DWL[Bip]V[NMeA][dL]NLVTC[Dab][Aun]-OH; thioether N-14)
7,6.93,CC(C)C[C@@H]1NC(=O)[C@H](Cc2c[nH]c3ccccc23)NC(=O)[C@H](CC(=O)O)NC(=O)[C@H](Cc2ccc(OCC(=O)O)cc2)NC(=O)[C@H](Cc2ccccc2)NC(=O)CSC[C@@H](C(=O)N[C@@H](CCN)C(=O)NCCCCCCCCCCC(=O)O)NC(=O)[C@H](CCC(=O)O)NC(=O)[C@H](C(C)C)NC(=O)[C@H](CC(C)C)NC(=O)[C@H](CC(N)=O)NC(=O)[C@@H](CC(C)C)NC(=O)[C@H](C)N(C)C(=O)[C@H](C(C)C)NC(=O)[C@H](Cc2ccc(-c3ccccc3)cc2)NC1=O [Example 1334] ({CH2CO}-FY(Carboxymethyl)DWL[Bip]V[NMeA][dL]NLVEC[Dab][Aun]-OH; thioether N-14)
8,7.23,CC(C)C[C@@H]1NC(=O)[C@H](Cc2c[nH]c3ccccc23)NC(=O)[C@H](CC(=O)O)NC(=O)[C@H](Cc2ccc(OCC(=O)O)cc2)NC(=O)[C@H](Cc2ccccc2)NC(=O)CSC[C@@H](C(=O)N[C@@H](CCCN)C(=O)NCCCCCCCCCCC(=O)O)NC(=O)[C@H]([C@@H](C)O)NC(=O)[C@H](C(C)C)NC(=O)[C@H](CC(C)C)NC(=O)[C@H](CC(N)=O)NC(=O)[C@@H](CC(C)C)NC(=O)[C@H](C)N(C)C(=O)[C@H](C(C)C)NC(=O)[C@H](Cc2ccc(-c3ccccc3)cc2)NC1=O [Example 1335] ({CH2CO}-FY(Carboxymethyl)DWL[Bip]V[NMeA][dL]NLVTC[Orn][Aun]-OH; thioether N-14)

# — US20260070945A1, “MACROCYCLIC IMMUNOMODULATORS” (Bristol-Myers Squibb Company, priority 2022, published 2026)
